Measurements reported in paper PMC5673865, “Characterization of a beta-glucosidase from Bacillus licheniformis and its effect on bioflocculant degradation” (AMB Express, 2017).

Experiments:
Bgl.bli1 [1] = target: T1, Bgl.bli1 (Bacillus licheniformis, UniProt Q65D83); experiment: pNPG hydrolysis; format: biochemical; conditions: standard assay, no glucose added
T1 construct: gene BL01920; cloning primers encode start MARQTW and end TEEFRYK
T1 sequence (Q65D83 1-478): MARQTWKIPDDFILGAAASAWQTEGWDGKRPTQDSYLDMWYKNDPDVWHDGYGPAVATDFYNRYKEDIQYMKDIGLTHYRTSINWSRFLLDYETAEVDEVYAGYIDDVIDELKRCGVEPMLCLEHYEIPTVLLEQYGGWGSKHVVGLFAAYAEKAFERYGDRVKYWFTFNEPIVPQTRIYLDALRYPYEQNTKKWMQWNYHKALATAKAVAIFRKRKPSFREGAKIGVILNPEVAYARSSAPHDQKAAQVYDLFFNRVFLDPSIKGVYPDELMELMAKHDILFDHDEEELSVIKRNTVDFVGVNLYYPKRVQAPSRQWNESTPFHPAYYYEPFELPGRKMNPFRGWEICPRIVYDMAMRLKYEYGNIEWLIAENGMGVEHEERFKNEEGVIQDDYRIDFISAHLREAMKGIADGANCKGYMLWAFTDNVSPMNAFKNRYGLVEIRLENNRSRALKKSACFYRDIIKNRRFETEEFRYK

Bgl.bli1 [2] = target: T1, Bgl.bli1; experiment: pNPG hydrolysis with added glucose; format: biochemical; conditions: substrate pNPG, called competitive by the authors
From the text: pNPG hydrolysis with added glucose on Bgl.bli1

Relative activity (%) at 10% (w/w) glucose (Bgl.bli1 [2]) [%] | SMILES | pNPG hydrolysis (Bgl.bli1 [1])
– | O=[N+]([O-])c1ccc(O[C@@H]2O[C@H](CO)[C@@H](O)[C@H](O)[C@H]2O)cc1 [p-nitrophenyl-β-D-glucopyranoside] | Bgl.bli1 activity was determined by measuring the hydrolysis of p-nitrophenyl-β-D-glucopyranoside (pNPG)
49.26 | OC[C@H]1OC(O)[C@H](O)[C@@H](O)[C@@H]1O (some centres unmarked) [glucose] | –
